Measured values taken from article PMC4303209, “A novel phosphatidylinositol 3-kinase (PI3K) inhibitor directs a potent FOXO-dependent, p53-independent cell cycle arrest phenotype characterized by the differential induction of a subset of FOXO-regulated genes” (Breast Cancer Research : BCR, 2014).

System: MCF-7 breast cancer cells
Assay: Microarray gene expression analysis (Agilent whole human genome 4 x 44K; compound vs DMSO, LIMMA log2 fold change)
Format: cell-based
Conditions: Apoptosis genes

## Cn1ncc2c(N3CCOCC3)nc(-c3cccc(O)c3)nc21 [ETP-45658]
Gene 1495
  CTNNA1 log2FC: 0.398
Gene 1499
  CTNNB1 log2FC: 0.236
Gene 1508
  CTSB log2FC: -0.231
Gene 1512
  CTSH log2FC: -0.192
Gene 1514
  CTSL log2FC: 0.446
Gene 1524
  CX3CR1 log2FC: 0.181
Gene 1540
  CYLD log2FC: 0.499
Gene 1601
  DAB2 log2FC: -0.232
Gene 1603
  DAD1 log2FC: -0.542
Gene 1611
  DAP log2FC: -0.178
Gene 1612
  DAPK1 log2FC: 0.238
Gene 1613
  DAPK3 log2FC: -0.132
Gene 1621
  DBH log2FC: -0.059
Gene 1630
  DCC log2FC: 0.044
Gene 1647
  GADD45A log2FC: -0.416
Gene 1649
  DDIT3 log2FC: 2.364
Gene 1654
  DDX3X log2FC: -1.156
Gene 1655
  DDX5 log2FC: -0.656
Gene 1676
  DFFA log2FC: -0.316
Gene 1687
  DFNA5 log2FC: 0.156
Gene 1718
  DHCR24 log2FC: -0.643
Gene 1723
  DHODH log2FC: -0.210
Gene 1728
  NQO1 log2FC: 0.303
Gene 1745
  DLX1 log2FC: -0.429
Gene 1773
  DNASE1 log2FC: 0.250
Gene 1776
  DNASE1L3 log2FC: -0.141
Gene 1777
  DNASE2 log2FC: 0.536
Gene 1793
  DOCK1 log2FC: 0.462
Gene 1800
  DPEP1 log2FC: -0.068
Gene 1822
  ATN1 log2FC: -0.501
Gene 1828
  DSG1 log2FC: -0.456
Gene 1829
  DSG2 log2FC: 0.346
Gene 1830
  DSG3 log2FC: -0.092
Gene 1831
  TSC22D3 log2FC: 0.689
Gene 1832
  DSP log2FC: 0.613
Gene 1843
  DUSP1 log2FC: -0.931
Gene 1844
  DUSP2 log2FC: -2.124
Gene 1848
  DUSP6 log2FC: -2.175
Gene 1869
  E2F1 log2FC: -0.356
Gene 1870
  E2F2 log2FC: -0.581
Gene 1894
  ECT2 log2FC: 1.058
Gene 1906
  EDN1 log2FC: 0.169
Gene 1909
  EDNRA log2FC: -0.061
Gene 1910
  EDNRB log2FC: -0.075
Gene 1917
  EEF1A2 log2FC: -0.382
Gene 1946
  EFNA5 log2FC: -0.086
Gene 1956
  EGFR log2FC: 0.311
Gene 1958
  EGR1 log2FC: -3.897
Gene 1959
  EGR2 log2FC: -0.340
Gene 1969
  EPHA2 log2FC: -2.195
Gene 1984
  EIF5A log2FC: -0.137
Gene 2021
  ENDOG log2FC: -0.357
Gene 2033
  EP300 log2FC: -0.215
Gene 2045
  EPHA7 log2FC: -0.083
Gene 2055
  CLN8 log2FC: -0.161
Gene 2056
  EPO log2FC: -0.146
Gene 2065
  ERBB3 log2FC: 0.557
Gene 2066
  ERBB4 log2FC: 0.141
Gene 2068
  ERCC2 log2FC: -0.566
Gene 2071
  ERCC3 log2FC: -0.084
Gene 2073
  ERCC5 log2FC: 0.896
Gene 2074
  ERCC6 log2FC: 0.369
Gene 2081
  ERN1 log2FC: -0.168
Gene 2099
  ESR1 log2FC: -0.121
Gene 2100
  ESR2 log2FC: -0.067
Gene 2113
  ETS1 log2FC: -0.590
Gene 2139
  EYA2 log2FC: -0.248
Gene 2149
  F2R log2FC: 0.260
Gene 2152
  F3 log2FC: -0.164
Gene 2185
  PTK2B log2FC: 0.101
Gene 2207
  FCER1G log2FC: -0.662
Gene 2245
  FGD1 log2FC: -0.405
Gene 2249
  FGF4 log2FC: -0.171
Gene 2253
  FGF8 log2FC: -0.131
Gene 2255
  FGF10 log2FC: 0.033
Gene 2260
  FGFR1 log2FC: -0.387
Gene 2261
  FGFR3 log2FC: -0.382
Gene 2263
  FGFR2 log2FC: 1.543
Gene 2272
  FHIT log2FC: -0.370
Gene 2274
  FHL2 log2FC: -0.173
Gene 2296
  FOXC1 log2FC: -0.876
Gene 2303
  FOXC2 log2FC: -0.613
Gene 2322
  FLT3 log2FC: 0.165
Gene 2324
  FLT4 log2FC: -0.341
Gene 2339
  FNTA log2FC: 1.051
Gene 2395
  FXN log2FC: -0.579
Gene 2487
  FRZB log2FC: 0.110
Gene 2534
  FYN log2FC: -0.127
Gene 2539
  G6PD log2FC: -0.236
Gene 2558
  GABRA5 log2FC: 0.036
Gene 2561
  GABRB2 log2FC: -0.066
Gene 2562
  GABRB3 log2FC: 0.054
Gene 2619
  GAS1 log2FC: 0.711
Gene 2620
  GAS2 log2FC: 0.183
Gene 2623
  GATA1 log2FC: -0.041
Gene 2625
  GATA3 log2FC: -0.140
Gene 2668
  GDNF log2FC: 0.348
Gene 2683
  B4GALT1 log2FC: 0.129
Gene 2697
  GJA1 log2FC: -0.390
Gene 2729
  GCLC log2FC: 1.033
Gene 2737
  GLI3 log2FC: 0.306
Gene 2739
  GLO1 log2FC: 0.300
Gene 2765
  GML log2FC: -0.233
Gene 2782
  GNB1 log2FC: -0.075
Gene 2792
  GNGT1 log2FC: 0.035
Gene 2796
  GNRH1 log2FC: 0.243
Gene 2810
  SFN log2FC: -1.182
Gene 2822
  GPLD1 log2FC: -0.136
Gene 2833
  CXCR3 log2FC: -0.730
Gene 2869
  GRK5 log2FC: 0.091
Gene 2872
  MKNK2 log2FC: -0.750
Gene 2876
  GPX1 log2FC: 0.224
Gene 2895
  GRID2 log2FC: -0.054
Gene 2898
  GRIK2 log2FC: 0.090
Gene 2901
  GRIK5 log2FC: -0.286
Gene 2902
  GRIN1 log2FC: -0.518
Gene 2903
  GRIN2A log2FC: -0.037
Gene 2908
  NR3C1 log2FC: 1.303
Gene 2914
  GRM4 log2FC: -0.041
Gene 2923
  PDIA3 log2FC: -0.131
Gene 2931
  GSK3A log2FC: -0.246
Gene 2932
  GSK3B log2FC: -0.607
Gene 2934
  GSN log2FC: -0.206
Gene 2950
  GSTP1 log2FC: 0.120
Gene 2956
  MSH6 log2FC: 0.235
Gene 2999
  GZMH log2FC: -0.228
Gene 3001
  GZMA log2FC: -0.081
Gene 3002
  GZMB log2FC: -0.203
Gene 3004
  GZMM log2FC: -0.523
Gene 3005
  H1F0 log2FC: 0.826
Gene 3055
  HCK log2FC: -0.046
Gene 3065
  HDAC1 log2FC: -0.487
Gene 3066
  HDAC2 log2FC: 0.164
Gene 3070
  HELLS log2FC: 0.388
Gene 3071
  NCKAP1L log2FC: 0.079
Gene 3082
  HGF log2FC: -0.369
Gene 3084
  NRG1 log2FC: -1.147
Gene 3090
  HIC1 log2FC: -0.118
Gene 3091
  HIF1A log2FC: 0.141
Gene 3092
  HIP1 log2FC: -0.264
Gene 3094
  HINT1 log2FC: 0.229
Gene 3099
  HK2 log2FC: -1.193
Gene 3146
  HMGB1 log2FC: 0.513
Gene 3148
  HMGB2 log2FC: 1.232
Gene 3156
  HMGCR log2FC: 0.305
Gene 3162
  HMOX1 log2FC: 1.167
Gene 3164
  NR4A1 log2FC: -0.616
Gene 3202
  HOXA5 log2FC: 0.402
Gene 3209
  HOXA13 log2FC: 0.081
Gene 3265
  HRAS log2FC: -0.664
Gene 3273
  HRG log2FC: 0.066
Gene 3275
  PRMT2 log2FC: 0.361
Gene 3303
  HSPA1A log2FC: -2.764
Gene 3309
  HSPA5 log2FC: -0.358
Gene 3315
  HSPB1 log2FC: -0.158
Gene 3320
  HSP90AA1 log2FC: 1.066
Gene 3326
  HSP90AB1 log2FC: -0.153
